≈ marks a conversion by molar mass, not a printed value. Where two headings read alike, the source gives them in different places. Numbered stars: 1 amine (or outer) side, 2 acyl side, 3 side chain; on linkers, the order of the positions; unused ones are H or OH. Bridge positions count the residues as written; N and C are the ends. Square brackets hold non-standard residues; d marks the D form. Peptide text beside a SMILES is read from it. * marks the point of attachment. Lys(Me,(CH2)4NMe(CH2)5CO) = CN(CCCCCC(=O)[*:3])CCCCN(C)CCCC[C@H](N[*:1])C(=O)[*:2]; Lys(Me,(CH2)4NMe(CH2)4CO) = CN(CCCCC(=O)[*:3])CCCCN(C)CCCC[C@H](N[*:1])C(=O)[*:2]; Trp(7-Me) = Cc1cccc2c(C[C@H](N)C(=O)O)c[nH]c12; Trp(1-Me) = Cn1cc(C[C@H](N)C(=O)O)c2ccccc21; NH(2-(3-pyridyl)ethyl) = c1cncc(CCN*)c1; αMeLys(Me2) = CN(C)CCCC[C@](C)(N)C(=O)O; 2Nal = N[C@@H](Cc1ccc2ccccc2c1)C(=O)O; 3Pal = N[C@@H](Cc1cccnc1)C(=O)O; Thp = NC1(C(=O)O)CCOCC1; Me2NCH2CH2 = CN(C)CC*; Aib = CC(C)(N)C(=O)O; Sar = CNCC(=O)O
Assays:
[1] = Solubility of peptide compounds in buffer formulations (Table 5); type: physicochemical; details: target 1 mg/ml
Description: Prior to the solubility measurement of a peptide batch, its purity was determined through UHPLC/MS method A.
(§1) For solubility testing the target concentration was 1 mg pure compound/ml. Therefore, solutions from solid samples were prepared in a buffer system at a concentration of 1 mg/mL compound. The solid samples were obtained by drying down aliquots of a freshly prepared dimethyl sulfoxide stock solution using a THERMO SPEEDVAC vacuum centrifuge. The dry down time was 3 hours.
The following buffer systems were applied: • Solubility buffer system A) 50 mM HCl pH 1.2 • Solubility buffer system B) 50 mM phosphate buffer pH 6.5 • Solubility buffer system C) 50 mM phosphate buffer pH 7.4 • UHPLC-UV was performed using analytical method A after 2 hours of gentle agitation from the filtered (0.45 μm filter plates) solutions, which were obtained by 10 mins of centrifugation forced filtration at 1500 RCF (relative centrifugal acceleration).
The solubility was determined by the comparison of the UV peak area of 2 μL-injections of a buffered sample diluted 1:10 with a standard curve of a dimethyl sulfoxide reference sample of known concentration. The different extinction coefficients were taken into account for the calculation.

[2] = tested on: IL-23 induced STAT3 signaling (IL-23 receptor) in HEK-Blue IL-23 cells; assay: Inhibition of IL-23 induced STAT3 signaling in HEK-Blue IL-23 cells, SEAP reporter (Table 9); type: cell-based; details: human IL23 0.25 ng/ml, overnight, read-out: Inhibition of IL-23 induced pSTAT3 (IC50 nM)
Text: HEK-Blue™ IL-23 cells (INVIVOGEN) are designed for the detection of bioactive human (hIL-23) and murine IL-23 (mIL-23) by monitoring the activation of the STAT3 pathway. Binding of IL-23 to its receptor on the surface of HEK-Blue™ IL-23 cells triggers a signaling cascade leading to the activation of STAT3 and the subsequent production of secreted embryonic alkaline phosphatase (SEAP). This can be readily assessed using QUANTI-Blue™ Solution, a SEAP detection reagent.
HEK-Blue™ IL-23 cells were cultured as described by INVIVOGEN.
On the first day of assay 10 μL of the HEK-BLUE IL23 cell suspension (final concentration: 10,000 cells/well) and 10 μl of serially diluted peptides solutions were dispensed into a 384-well assay plate. After pre-incubation of the reaction mixtures at 37° C./5% CO2/95% humidity for 60 minutes, 10 μl of the humanIL23 cytokine (final concentration: 0.25 ng/ml) was added to each well for the STAT3 signaling activation. The plate was incubated overnight at 37° C./5% CO2/95% humidity.
On the second day 20 μl per well of QUANTI-BLUE detection solution (prepared according to the manufacture instruction) was dispensed into a new 384-well plate and followed by the transfer of 5 μl supernatant of the overnight incubated cell/sample mixtures. After incubation of 45 min at room temperature signals were measured with PHERASTAR (BMG) at OD 620-655 nm.
Dose response data were fitted with XLfit.

[3] = Chemical stability (relative purity loss) of peptide compounds in buffer formulations (Table 6); type: physicochemical; details: 2° C. and 37° C.
Description: Purity of a peptide batch was determined through UHPLC/MS method A prior to chemical stability measurement.
as §1, with “stability assessment,” for “solubility testing”, “0.5” for “1”, “acetonitrile” for “dimethyl sulfoxide”
The following buffer systems were applied: • Solubility buffer system A): 50 mM HCl pH 1.2+Acetonitrile (3:1). • Solubility buffer system B): 50 mM phosphate buffer pH 6.5+Acetonitrile (3:1). • Solubility buffer system C): 50 mM phosphate buffer pH 7.4+Acetonitrile (3:1). • Prepared solutions were stored for 24 hours at 2° C. and 37° C.
After this time course, the samples were centrifuged for 15 min at 2500 RCF to create a 1:5 dilution of the supernatant. Then 2 μl of the dilution were analyzed with UHPLC-UV applying method A.
The chemical stability was rated through the relative loss of purity calculated by the equation: […]

[4] = Buffer pH 1.1 (head; method: 50 mM HCl pH 1.2), 2 h agitation, read-out: Solubility, Buffer pH 1.1
[5] = aqueous buffer, 50 mM phosphate buffer pH 6.5, 2 h agitation, read-out: Solubility, Buffer pH 6.5
[6] = aqueous buffer, 50 mM phosphate buffer pH 7.4, 2 h agitation, read-out: Solubility, Buffer pH 7.4

solubility at 2 h [1, 4]	solubility at 2 h [1, 5]	solubility at 2 h [1, 6]	degraded at 24 h ([3]; 50 mM phosphate buffer pH 6.5 + acetonitrile (3:1), read-out: Chemical stability (relative purity loss), Buffer pH 6.5)	degraded at 24 h ([3]; 50 mM phosphate buffer pH 7.4 + acetonitrile (3:1), read-out: Chemical stability (relative purity loss), Buffer pH 7.4)	degraded at 24 h ([3]; 50 mm hcl + acetonitrile, Buffer pH 1.1 (head; method: 50 mM HCl pH 1.2 + acetonitrile 3:1), read-out: Chemical stability (relative purity loss), Buffer pH 1.1)	Compound	IC50 [2]
≥ 980 µg/mL	850 µg/mL (≈ 550 µM)	810 µg/mL (≈ 524 µM)				CC(=O)NCCCC[C@@H]1NC(=O)[C@H](Cc2c[nH]c3c(C)cccc23)NC(=O)CCCCN(C)CCCCN(C)CCCC[C@@H](C(=O)NCC(=O)NCCc2cccnc2)NC(=O)C2(CCOCC2)NC(=O)[C@H](Cc2ccc3ccccc3c2)NC(=O)[C@H](Cc2ccc(OCCN(C)C)cc2)NC(=O)C2(CCOCC2)NC1=O [compound 48] ([Trp(7-Me)]K(Ac)[Thp]Y(Me2NCH2CH2)[2Nal][Thp][Lys(Me,(CH2)4NMe(CH2)4CO)]G-{NH(2-(3-pyridyl)ethyl)}; lactam N-7)	10.4 nM
≥ 1000 µg/mL	≥ 890 µg/mL	850 µg/mL (≈ 516 µM)	0%	0%	3.7%	CC(=O)NCCCC[C@@H]1NC(=O)[C@H](Cc2c[nH]c3c(C)cccc23)NC(=O)CCCCN(C)CCCCN(C)CCCC[C@@H](C(=O)N[C@@H](CO)C(=O)N[C@@H](Cc2cccnc2)C(=O)N(C)CC(N)=O)NC(=O)C(C)(C)NC(=O)[C@H](Cc2ccc3ccccc3c2)NC(=O)[C@H](Cc2ccc(OCCN(C)C)cc2)NC(=O)C2(CCOCC2)NC1=O [compound 39] ([Trp(7-Me)]K(Ac)[Thp]Y(Me2NCH2CH2)[2Nal][Aib][Lys(Me,(CH2)4NMe(CH2)4CO)]S[3Pal][Sar]-NH2; lactam N-7)	1.78 nM
≥ 1060 µg/mL	≥ 1030 µg/mL	≥ 1030 µg/mL				CN(C)CCCC[C@]1(C)NC(=O)[C@H](Cc2ccc3ccccc3c2)NC(=O)[C@H](Cc2ccc(OCCN(C)C)cc2)NC(=O)C2(CCOCC2)NC(=O)[C@H](CCC(N)=O)NC(=O)[C@H](Cc2cn(C)c3ccccc23)NC(=O)CCCCN(C)CCCCN(C)CCCC[C@@H](C(=O)N[C@@H](CO)C(=O)N[C@@H](Cc2cccnc2)C(=O)N(C)CC(N)=O)NC1=O [compound 45] ([Trp(1-Me)]Q[Thp]Y(Me2NCH2CH2)[2Nal][αMeLys(Me2)][Lys(Me,(CH2)4NMe(CH2)4CO)]S[3Pal][Sar]-NH2; lactam N-7)	7.83 nM
≥ 1020 µg/mL	≥ 920 µg/mL	330 µg/mL (≈ 224 µM)				CN(C)CCOc1ccc(C[C@@H]2NC(=O)C3(CCOCC3)NC(=O)[C@H](CCC(N)=O)NC(=O)[C@H](Cc3cn(C)c4ccccc34)NC(=O)CCCCCN(C)CCCCN(C)CCCC[C@@H](C(=O)NCC(=O)NCCc3cccnc3)NC(=O)C(C)(C)NC(=O)[C@H](Cc3ccc4ccccc4c3)NC2=O)cc1 [compound 22] ([Trp(1-Me)]Q[Thp]Y(Me2NCH2CH2)[2Nal][Aib][Lys(Me,(CH2)4NMe(CH2)5CO)]G-{NH(2-(3-pyridyl)ethyl)}; lactam N-7)	24.8 nM

From US20260297129A1, “PEPTIDES AS SELECTIVE IL-23 RECEPTOR INHIBITORS” (SANOFI, priority 2023, published 2026)
